Laboratory results: BindingDB's records for doi:10.1124/jpet.103.064907 (Abbott Laboratories, 2004)

What follows are compounds tested against T1, P2X purinoceptor 3 (Homo sapiens, UniProt P56373).
T1 sequence (P56373 whole entry): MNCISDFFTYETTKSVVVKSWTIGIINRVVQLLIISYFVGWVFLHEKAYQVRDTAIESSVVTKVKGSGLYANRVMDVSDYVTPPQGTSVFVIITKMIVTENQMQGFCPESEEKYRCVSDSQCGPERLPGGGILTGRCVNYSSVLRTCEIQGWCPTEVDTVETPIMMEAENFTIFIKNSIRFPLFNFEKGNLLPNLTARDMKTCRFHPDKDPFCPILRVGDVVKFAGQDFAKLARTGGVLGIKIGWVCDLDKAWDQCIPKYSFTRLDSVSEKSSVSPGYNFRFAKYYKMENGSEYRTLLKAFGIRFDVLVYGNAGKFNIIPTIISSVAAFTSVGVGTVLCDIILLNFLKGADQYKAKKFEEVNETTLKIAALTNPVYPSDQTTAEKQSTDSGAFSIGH

Row | Ki [nM] | SMILES
1 | 47.3 | Nc1ncnc2c1ncn2[C@@H]1O[C@H](COP(=O)(O)OP(=O)(O)OP(=O)(O)O)C[C@H]1O [NSC_0]
2 | 406 | Nc1ncnc2c1ncn2[C@H]1CC[C@@H](COP(=O)(O)OP(=O)(O)OP(=O)(O)O)O1 [2',3'-Dideoxyadenosine Triphosphate (Ddatp)]
3 | 2530 | Nc1c(S(=O)(=O)O)cc(Nc2ccc(Nc3nc(Cl)nc(Nc4ccccc4S(=O)(=O)O)n3)c(S(=O)(=O)O)c2)c2c1C(=O)c1ccccc1C2=O
4 | 2610 | O=c1ccn([C@@H]2O[C@H](COP(=O)(O)OP(=O)(O)OP(=O)(O)O)[C@@H](O)[C@H]2O)c(=O)[nH]1 [({[({[5-(2,4-dioxo-1,2,3,4-tetrahydropyrimidin-1-yl)-3,4-dihydroxyoxolan-2-yl]methoxy}(hydroxy)phosphoryl)oxy](hydroxy)phosphoryl}oxy)phosphonic acid]
5 | 452 | Nc1ncnc2c1ncn2[C@@H]1O[C@H](COP(=O)(O)OP(=O)(O)O)[C@@H](O)[C@H]1O [ADP]
6 | 7.7 | Nc1ncnc2c1ncn2[C@@H]1O[C@H](COP(=O)(O)OP(=O)(O)OP(=O)(O)O)[C@@H](OC(=O)c2ccc(C(=O)c3ccccc3)cc2)[C@H]1O [NSC_0]
7 | 180 | Nc1ncnc2c1ncn2[C@H]1C[C@H](O)[C@@H](COP(=O)(O)OP(=O)(O)OP(=O)(O)O)O1
8 | 1670 | Nc1ncnc2c1ncn2C1OC(COP(=O)(O)OP(=O)(O)OP(=O)(O)OC2C(CO)OC(n3cnc4c(N)ncnc43)C2O)C(O)C1O (centres undefined) [CAS_3035419]
9 | > 10000 | CN(C(Cc1ccc(OS(=O)(=O)c2cccc3cnccc23)cc1)C(=O)N1CCN(c2ccccc2)CC1)S(=O)(=O)c1cccc2cnccc12 (centres undefined) [KN-62]
10 | 8.2 | CSc1nc(N)c2ncn([C@@H]3O[C@H](COP(=O)(O)OP(=O)(O)OP(=O)(O)O)[C@@H](O)[C@H]3O)c2n1 [ATP, 2-meS]

Row | SMILES | Ki [nM]
11 | Nc1ncnc2c1ncn2[C@@H]1O[C@H](COP(=O)(O)OP(=O)(O)OP(=O)(O)O)[C@@H](O)[C@H]1O | 14.6
12 | Nc1ncnc2c1ncn2[C@@H]1O[C@H](COP(=O)(O)CP(=O)(O)O)[C@@H](O)[C@H]1O [alpha, beta-methyleneadenosine 5 -diphosphate] | > 10000
13 | Nc1ncnc2c1ncn2C1OC(COP(=O)(O)OP(=O)(O)OP(=O)(O)OP(=O)(O)OP(=O)(O)OP(=O)(O)OCC2OC(n3cnc4c(N)ncnc43)C(O)C2O)C(O)C1O (centres undefined) [NSC_123694] | 4.8
14 | Nc1ncnc2c1ncn2[C@@H]1O[C@H](COP(=O)(O)OP(=O)(O)CP(=O)(O)O)[C@@H](O)[C@H]1O [adenylylmethylenediphosphonate] | 387
15 | Nc1ncnc2c1ncn2[C@@H]1O[C@H](CO[P@](=O)(O)O[P@](=O)(O)OC[C@H]2O[C@@H](n3cnc4c(N)ncnc43)[C@H](O)[C@@H]2O)[C@@H](O)[C@H]1O [NSC_0] | > 10000
16 | Nc1ncnc2c1ncn2C1OC(COP(=O)(O)OP(=O)(O)OP(=O)(O)OP(=O)(O)OP(=O)(O)OCC2OC(n3cnc4c(N)ncnc43)C(O)C2O)C(O)C1O (centres undefined) [NSC_440210] | 10.4
17 | Nc1ncnc2c1ncn2C1OC(COP(=O)(O)OP(=O)(O)OP(O)(O)=S)C(O)C1O (centres undefined) [NSC_440317] | 40.3
18 | Nc1ncnc2c1ncn2[C@@H]1O[C@H](COP(=O)(O)OP(=O)(O)S)[C@@H](O)[C@H]1O (some centres undefined) [CAS_123848] | 297
19 | Nc1ncnc2c1ncn2[C@@H]1O[C@H](COP(=O)(O)CP(=O)(O)OP(=O)(O)O)[C@@H](O)[C@H]1O [({[({[5-(6-amino-9H-purin-9-yl)-3,4-dihydroxyoxolan-2-yl]methoxy}(hydroxy)phosphoryl)methyl](hydroxy)phosphoryl}oxy)phosphonic acid] | 9
